From patent US4912107A, “Pyrrolocarbazole derivatives, compositions containing them, and methods for using them” (Goedecke Aktiengesellschaft, priority 1988, dated 1990)

Molecular target: protein kinase C
Experiment: enzyme assay of protein kinase C activated with phosphatidylserine and diacylglycerol
Assay type: biochemical
Conditions: protein kinase C activated with phosphatidylserine and iacylglycerol; according to EP-OS 0 255 126; read-out: concentration giving 50% inhibition of protein kinase C
Method: Compounds of the present invention are potent inhibitors of protein kinases, such as protein kinase C. […] The experiment was carried out according to EP-OS 0 255 126 (inhibition of protein kinase C).

For CCn1c2ccccc2c2c3c(c(-c4ccccc4Cl)cc21)C(=O)NC3=O [Example 2a, 4-(2-Chlorophenyl)-6-ethyl-1,2,3,6-tetrahydro-1,3-dioxopyrrolo[3,4-c]carbazole], the IC50 was 0.58 µM.
